Measured values reported in patent publication US4684664A, “Derivatives of β-(4-isocyano-1,2,3,4-diepoxycyclopentyl) acrylic acid” (Kureha Kagaku Kogyo Kabushiki Kaisha, priority 1984, dated 1987).
In brackets after ≈: the same amount, converted by molar mass. Where two headings read alike, the source gives them in different places.

Assays:
Type in all cases: cell-based
[1] = test system: Staphylococcus aureus FDA 209PJc-1; assay: Antibacterial activity, agar-dilution MIC, organism No. 1; conditions: Staphylococcus aureus
Outline: (§1)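 MICs were determined by agar dilution on bouillon-agar medium. The value is the minimum concentration of specimen inhibiting growth, expressed as μg/ml of culture medium.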

[2] = test system: Staphylococcus aureus Terajima; assay: Antibacterial activity, agar-dilution MIC, organism No. 2; conditions: Staphylococcus aureus, read-out: Minimum Inhibitory Concentration
Outline: as §1

[3] = test system: Staphylococcus aureus MS 353; assay: Antibacterial activity, agar-dilution MIC, organism No. 3; conditions: Staphylococcus aureus
Outline: as §1

[4] = test system: Streptococcus pyogenes Cook; assay: Antibacterial activity, agar-dilution MIC, organism No. 4; conditions: Streptococcus pyogenes, read-out: Minimum Inhibitory Concentration
Outline: as §1

[5] = test system: Escherichia coli NIHJ-JC-2; assay: Antibacterial activity, agar-dilution MIC, organism No. 5; conditions: Escherichia coli
Outline: as §1

[6] = test system: Escherichia coli K12 C600 IAM 1264; assay: Antibacterial activity, agar-dilution MIC, organism No. 6; conditions: Escherichia coli
Outline: as §1

[7] = test system: Klebsiella pneumoniae PCI-602; assay: Antibacterial activity, agar-dilution MIC, organism No. 7; conditions: Klebsiella pneumoniae
Outline: as §1

[8] = test system: Salmonella typhimurium IID 971; assay: Antibacterial activity, agar-dilution MIC, organism No. 8; conditions: Salmonella enterica, read-out: Minimum Inhibitory Concentration
Outline: as §1

[9] = test system: Salmonella typhi 901; assay: Antibacterial activity, agar-dilution MIC, organism No. 9; conditions: Salmonella enterica, TYPHI, read-out: Minimum Inhibitory Concentration
Outline: as §1

[10] = test system: Salmonella paratyphi-A 1015; assay: Antibacterial activity, agar-dilution MIC, organism No. 10; conditions: Salmonella enterica, PARATYPHI, read-out: Minimum Inhibitory Concentration
Outline: as §1

[11] = test system: Salmonella shottmuelleri 8006; assay: Antibacterial activity, agar-dilution MIC, organism No. 11
Outline: as §1

[12] = test system: Salmonella enteritidis G 14; assay: Antibacterial activity, agar-dilution MIC, organism No. 12; conditions: Salmonella enterica, ENTERITIDIS, read-out: Minimum Inhibitory Concentration
Outline: as §1

[13] = test system: Serratia marcescens IAM 1184; assay: Antibacterial activity, agar-dilution MIC, organism No. 13; conditions: Serratia marcescens
Description: Agar-dilution method was used for determination of the antibacterial activity and antifungal activity while using bouillon-agar culture medium, and the minimum inhibitory concentration of the specimen was expressed by μg/ml of the culture medium.

[14] = test system: Bacillus subtilis ATCC 6633; assay: Antibacterial activity, agar-dilution MIC, organism No. 14; conditions: Bacillus subtilis
Outline: as §1

[15] = test system: Pseudomonas aeruginosa IFO 3445; assay: Antibacterial activity, agar-dilution MIC, organism No. 15; conditions: Pseudomonas aeruginosa
Outline: as §1

[16] = test system: Pseudomonas aeruginosa NCTC 10490; assay: Antibacterial activity, agar-dilution MIC, organism No. 16; conditions: Pseudomonas aeruginosa
Outline: as §1

[17] = test system: Pseudomonas aeruginosa PAO 1; assay: Antibacterial activity, agar-dilution MIC, organism No. 17; conditions: Pseudomonas aeruginosa
Outline: as §1

[18] = test system: Proteus morganii IFO 3848; assay: Antibacterial activity, agar-dilution MIC, organism No. 18; conditions: Morganella morganii
Outline: as §1

[19] = test system: Proteus mirabilis IFO 3849; assay: Antibacterial activity, agar-dilution MIC, organism No. 19; conditions: Proteus mirabilis
Outline: as §1

[20] = test system: Proteus vulgaris OX-19; assay: Antibacterial activity, agar-dilution MIC, organism No. 20; conditions: Proteus vulgaris
Outline: as §1

[21] = test system: Proteus vulgaris HX-19; assay: Antibacterial activity, agar-dilution MIC, organism No. 21; conditions: Proteus vulgaris
Outline: as §1

[22] = test system: Proteus rettgeri IFO 3850; assay: Antibacterial activity, agar-dilution MIC, organism No. 22; conditions: Providencia rettgeri
Outline: as §1

[23] = test system: Enterobacter aerogenes ATCC 13048; assay: Antibacterial activity, agar-dilution MIC, organism No. 23; conditions: Klebsiella aerogenes
Outline: as §1

[24] = test system: Enterobacter cloacae 963; assay: Antibacterial activity, agar-dilution MIC, organism No. 24
Outline: as §1

[25] = test system: Micrococcus luteus ATCC 9341; assay: Antibacterial activity, agar-dilution MIC, organism No. 25; conditions: Micrococcus luteus
Outline: as §1

[26] = test system: Streptococcus pyogenes IFO 3340; assay: Antibacterial activity, agar-dilution MIC, organism No. 26; conditions: Streptococcus pyogenes, IFO3340; Organism No. 26, bouillon-agar; read-out: Minimum Inhibitory Concentration
Outline: as §1

[27] = test system: Candida albicans IAM 4905; assay: Antifungal activity, agar-dilution MIC, organism No. 29; conditions: Candida albicans
Outline: as §1

[28] = test system: Aspergillus niger IFO 6342; assay: Antifungal activity, agar-dilution MIC, organism No. 30; conditions: Aspergillus niger
Outline: as §1

[29] = FDA209PJC1, Organism No. 1, bouillon-agar, read-out: Minimum Inhibitory Concentration
[30] = MS353, Organism No. 3, bouillon-agar, read-out: Minimum Inhibitory Concentration
[31] = NIHJJC2, Organism No. 5, bouillon-agar, read-out: Minimum Inhibitory Concentration
[32] = IAM1264, Organism No. 6, bouillon-agar, read-out: Minimum Inhibitory Concentration
[33] = PCI602, Organism No. 7, bouillon-agar, read-out: Minimum Inhibitory Concentration
[34] = Salmonella, 8006, Organism No. 11, bouillon-agar, read-out: Minimum Inhibitory Concentration
[35] = IAM1184, Organism No. 13, bouillon-agar, read-out: Minimum Inhibitory Concentration
[36] = ATCC6633, Organism No. 14, bouillon-agar, read-out: Minimum Inhibitory Concentration
[37] = IFO3445, Organism No. 15, bouillon-agar, read-out: Minimum Inhibitory Concentration
[38] = NCTC10490, Organism No. 16, bouillon-agar, read-out: Minimum Inhibitory Concentration
[39] = PAO1, Organism No. 17, bouillon-agar, read-out: Minimum Inhibitory Concentration
[40] = IFO3848, Organism No. 18, bouillon-agar, read-out: Minimum Inhibitory Concentration
[41] = IFO3849, Organism No. 19, bouillon-agar, read-out: Minimum Inhibitory Concentration
[42] = OX19, Organism No. 20, bouillon-agar, read-out: Minimum Inhibitory Concentration
[43] = HX19, Organism No. 21, bouillon-agar, read-out: Minimum Inhibitory Concentration
[44] = IFO3850, Organism No. 22, bouillon-agar, read-out: Minimum Inhibitory Concentration
[45] = ATCC13048, Organism No. 23, bouillon-agar, read-out: Minimum Inhibitory Concentration
[46] = Enterobacter cloacae, 963, Organism No. 24, bouillon-agar, read-out: Minimum Inhibitory Concentration
[47] = ATCC9341, Organism No. 25, bouillon-agar, read-out: Minimum Inhibitory Concentration
[48] = IAM4905, Organism No. 29, bouillon-agar, read-out: Minimum Inhibitory Concentration
[49] = IFO6342, Organism No. 30, bouillon-agar, read-out: Minimum Inhibitory Concentration

## [C-]#[N+]C12CC3(/C=C/C(=O)Nc4ccc(OC(C)C)cc4)OC3C1O2 (centres unmarked) [compound 74]
[1]; [29]
  MIC: 0.78 µg/mL (≈ 2.39 µM)
[2]; Organism No. 2, bouillon-agar
  MIC: 6.25 µg/mL (≈ 19.2 µM)
[3]; [30]
  MIC: 1.56 µg/mL (≈ 4.78 µM)
[4]; Organism No. 4, bouillon-agar
  MIC: 100 µg/mL (≈ 306 µM)
[5]; [31]
  MIC: > 200 µg/mL
[6]; [32]
  MIC: > 200 µg/mL
[7]; [33]
  MIC: 1.56 µg/mL (≈ 4.78 µM)
[8]; Organism No. 8, bouillon-agar
  MIC: > 200 µg/mL
[9]
  MIC: 12.5 µg/mL (≈ 38.3 µM)
[10]
  MIC: 1.56 µg/mL (≈ 4.78 µM)
[11]; [34]
  MIC: 3.13 µg/mL (≈ 9.59 µM)
[12]; Organism No. 12, bouillon-agar
  MIC: 200 µg/mL (≈ 613 µM)
[13]; [35]
  MIC: > 200 µg/mL
[14]; [36]
  MIC: 6.25 µg/mL (≈ 19.2 µM)
[15]; [37]
  MIC: > 200 µg/mL
[16]; [38]
  MIC: > 200 µg/mL
[17]; [39]
  MIC: > 200 µg/mL
[18]; [40]
  MIC: 6.25 µg/mL (≈ 19.2 µM)
[19]; [41]
  MIC: > 200 µg/mL
[20]; [42]
  MIC: 1.56 µg/mL (≈ 4.78 µM)
[21]; [43]
  MIC: 1.56 µg/mL (≈ 4.78 µM)
[22]; [44]
  MIC: 100 µg/mL (≈ 306 µM)
[23]; [45]
  MIC: > 200 µg/mL
[24]; [46]
  MIC: > 200 µg/mL
[25]; [47]
  MIC: 12.5 µg/mL (≈ 38.3 µM)
[26]
  MIC: 3.13 µg/mL (≈ 9.59 µM)
[27]; [48]
  MIC: 12.5 µg/mL (≈ 38.3 µM)
[28]; [49]
  MIC: 12.5 µg/mL (≈ 38.3 µM)

## [C-]#[N+]C12CC3(/C=C/C(=O)Nc4ccc(OCCC)cc4)OC3C1O2 (centres unmarked) [compound 73]
[1]; [29]
  MIC: 0.78 µg/mL (≈ 2.39 µM)
[2]; Organism No. 2, bouillon-agar
  MIC: 1.56 µg/mL (≈ 4.78 µM)
[3]; [30]
  MIC: 1.56 µg/mL (≈ 4.78 µM)
[4]; Organism No. 4, bouillon-agar
  MIC: 100 µg/mL (≈ 306 µM)
[5]; [31]
  MIC: > 200 µg/mL
[6]; [32]
  MIC: > 200 µg/mL
[7]; [33]
  MIC: 1.56 µg/mL (≈ 4.78 µM)
[8]; Organism No. 8, bouillon-agar
  MIC: > 200 µg/mL
[9]
  MIC: 50 µg/mL (≈ 153 µM)
[10]
  MIC: 0.39 µg/mL (≈ 1.2 µM)
[11]; [34]
  MIC: 1.56 µg/mL (≈ 4.78 µM)
[12]; Organism No. 12, bouillon-agar
  MIC: > 200 µg/mL
[13]; [35]
  MIC: > 200 µg/mL
[14]; [36]
  MIC: 12.5 µg/mL (≈ 38.3 µM)
[15]; [37]
  MIC: > 200 µg/mL
[16]; [38]
  MIC: > 200 µg/mL
[17]; [39]
  MIC: > 200 µg/mL
[18]; [40]
  MIC: 12.5 µg/mL (≈ 38.3 µM)
[19]; [41]
  MIC: > 200 µg/mL
[20]; [42]
  MIC: 1.56 µg/mL (≈ 4.78 µM)
[21]; [43]
  MIC: 0.78 µg/mL (≈ 2.39 µM)
[22]; [44]
  MIC: > 200 µg/mL
[23]; [45]
  MIC: > 200 µg/mL
[24]; [46]
  MIC: > 200 µg/mL
[25]; [47]
  MIC: 1.56 µg/mL (≈ 4.78 µM)
[26]
  MIC: 1.56 µg/mL (≈ 4.78 µM)
[27]; [48]
  MIC: 12.5 µg/mL (≈ 38.3 µM)
[28]; [49]
  MIC: 12.5 µg/mL (≈ 38.3 µM)

## [C-]#[N+]C12CC3(/C=C/C(=O)Nc4ccncc4)OC3C1O2 (centres unmarked) [compound 72]
[1]; FDA209PJC1, read-out: Minimum Inhibitory Concentration
  MIC: 1.56 µg/mL (≈ 5.79 µM)
[2]
  MIC: 6.25 µg/mL (≈ 23.2 µM)
[3]; MS353, read-out: Minimum Inhibitory Concentration
  MIC: 3.13 µg/mL (≈ 11.6 µM)
[4]
  MIC: 12.5 µg/mL (≈ 46.4 µM)
[5]; NIHJJC2, read-out: Minimum Inhibitory Concentration
  MIC: 50 µg/mL (≈ 186 µM)
[6]; IAM1264, read-out: Minimum Inhibitory Concentration
  MIC: 50 µg/mL (≈ 186 µM)
[7]; PCI602, read-out: Minimum Inhibitory Concentration
  MIC: 3.13 µg/mL (≈ 11.6 µM)
[8]
  MIC: 25 µg/mL (≈ 92.8 µM)
[9]
  MIC: 12.5 µg/mL (≈ 46.4 µM)
[10]
  MIC: 3.13 µg/mL (≈ 11.6 µM)
[11]; Salmonella, 8006, read-out: Minimum Inhibitory Concentration
  MIC: 6.25 µg/mL (≈ 23.2 µM)
[12]
  MIC: 12.5 µg/mL (≈ 46.4 µM)
[13]; IAM1184, read-out: Minimum Inhibitory Concentration
  MIC: 100 µg/mL (≈ 371 µM)
[14]; ATCC6633, read-out: Minimum Inhibitory Concentration
  MIC: 12.5 µg/mL (≈ 46.4 µM)
[15]; IFO3445, read-out: Minimum Inhibitory Concentration
  MIC: > 200 µg/mL
[16]; NCTC10490, read-out: Minimum Inhibitory Concentration
  MIC: > 200 µg/mL
[17]; PAO1, read-out: Minimum Inhibitory Concentration
  MIC: > 200 µg/mL
[18]; IFO3848, read-out: Minimum Inhibitory Concentration
  MIC: 6.25 µg/mL (≈ 23.2 µM)
[19]; IFO3849, read-out: Minimum Inhibitory Concentration
  MIC: > 200 µg/mL
[20]; OX19, read-out: Minimum Inhibitory Concentration
  MIC: 6.25 µg/mL (≈ 23.2 µM)
[21]; HX19, read-out: Minimum Inhibitory Concentration
  MIC: 6.25 µg/mL (≈ 23.2 µM)
[22]; IFO3850, read-out: Minimum Inhibitory Concentration
  MIC: 200 µg/mL (≈ 743 µM)
[23]; ATCC13048, read-out: Minimum Inhibitory Concentration
  MIC: > 200 µg/mL
[24]; Enterobacter cloacae, 963, read-out: Minimum Inhibitory Concentration
  MIC: 200 µg/mL (≈ 743 µM)
[25]; ATCC9341, read-out: Minimum Inhibitory Concentration
  MIC: 50 µg/mL (≈ 186 µM)
[27]; IAM4905, read-out: Minimum Inhibitory Concentration
  MIC: 6.25 µg/mL (≈ 23.2 µM)
[28]; IFO6342, read-out: Minimum Inhibitory Concentration
  MIC: 6.25 µg/mL (≈ 23.2 µM)
